Measurements reported in patent US12257235B2, “Methods and materials for using ruminococcus gnavus or clostridium sporogenes to treat gastrointestinal disorders” (Mayo Foundation for Medical Education and Research, priority 2015, dated 2025).
“Also recorded” adds a separate entry of the source. Read-outs that look alike come from different tables or passages of the source.

Legend:
[1] = molecular target: T1, CLOSPO_02083 (Clostridium sporogenes, UniProt J7SZ64); format: biochemical; conditions: for decarboxylation of Phe by CLOSPO_02083: up to 90 mM substrate, 60 minutes
T1 construct: His6 (N); made in house; host or cells: E. coli BL21 (DE3)
T1 sequence (J7SZ64 whole entry): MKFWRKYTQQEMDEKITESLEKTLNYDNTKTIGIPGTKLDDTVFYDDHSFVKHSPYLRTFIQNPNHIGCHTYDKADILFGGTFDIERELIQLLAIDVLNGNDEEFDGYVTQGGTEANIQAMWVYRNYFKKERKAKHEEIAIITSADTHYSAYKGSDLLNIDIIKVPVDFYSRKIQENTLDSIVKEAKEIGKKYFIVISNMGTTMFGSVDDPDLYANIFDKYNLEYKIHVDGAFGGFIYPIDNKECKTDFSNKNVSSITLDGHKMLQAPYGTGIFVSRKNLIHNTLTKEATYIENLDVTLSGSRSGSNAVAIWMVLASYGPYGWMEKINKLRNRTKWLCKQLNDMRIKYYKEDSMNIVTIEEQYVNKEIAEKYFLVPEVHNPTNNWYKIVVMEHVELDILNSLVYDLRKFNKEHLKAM
Experimental: (§1) Reaction mixtures contained 50 mM sodium phosphate pH 6.5, 300 mM NaCl, and […] PLP. Reactions were initiated by the addition of enzyme and terminated by quenching aliquots with 1 volume of MeOH and performed at 37° C. All substrates purchased from Sigma-Aldrich.
(§2) Under the same buffer and reaction conditions, the kinetic parameters for the decarboxylation of phenylalanine by RUMGNA_01526 were determined by adding RUMGNA_01526 to a final concentration of 500 nM, and the concentration of phenylalanine varied from 5-80 mM. Reactions proceeded for 10 minutes. The kinetic parameters for the decarboxylation of tryptophan by CLOSPO_02083 were determined by adding CLOSPO_02083 to a final concentration of 100 nM, and the concentration of tryptophan varied from 0.15-24.5 mM. Reactions proceeded for 6 minutes.
To gain insight into the substrate selectivity of CLOSPO_02083, the basic kinetic parameters were measured for CLOSPO_02083-catalyzed decarboxylation of the aromatic amino acids Trp, Tyr, and phenylalanine (Phe). To determine kcat and Km for CLOSPO_02083, the concentration of the amino acid substrate was varied under initial velocity conditions (FIGS. 3C and 4A).

[2] = tested on: proximal-mid colon, stripped of external muscle layers; experiment: Ion secretion from the murine colon, Ussing chamber short circuit current; set-up: species or system SvEv129 mice; conditions: 3 mM tryptamine, mucosal side
Experimental: A segment of proximal-mid colon, stripped of external muscle layers from each of three SvEv129 mice was mounted in 0.3 cm^2 area, 4 mL Ussing chamber. […] (FIG. 6).
The function of tryptamine in the context of microbe-host signaling in the gut was examined. An experiment to test whether tryptamine is capable of inducing ion secretion by intestinal epithelial cells was performed. Using an Ussing chamber, a segment of proximal-mid murine colon mucosa was exposed to two concentrations of tryptamine and the change of short circuit current was measured.

[3] = tested on: proximal colon, stripped of external muscle layers; experiment: Ussing chamber short circuit current of proximal colon from GF, HM and CR mice; conditions: for cumulative concentration response curves (intestinal secretion): serosal application, GF vs HM and CR mice; for EC50: Mus musculus; for EC50 / Emax (Δ Isc): serosal
Experimental: Colonic mucosal transepithelial resistance (TER) was measured at the beginning of each experiment and FITC Dextran (4 k Da) flux was determined from the linear fit of samples obtained from the serosal side every 5 minutes for 30 minutes after adding 1 mg/mL FITC-Dextran to the mucosal side. Change in short circuit current (Δ lsc) was determined in response to electrical field stimulation (EFS) using foil electrodes on the submucosal side (30-150V, 100 0.5 ms pulses at 1-2 Hz). There was no significant difference in Δ lsc between GF and HM in response to EFS at 1 Hz (138±42 vs 202±71 μA/cm^2; n=4; p>0.05) or 2 Hz (180±28 vs 252±70 μA/cm^2; n=4; p>0.05).
Acetylcholine (Ach) in increasing concentrations (0.01-300 μM) on the serosal side was used as a control for tissue reactivity. Cumulative concentration response curves induced by serosal ACh were not different between GF and HM as evident by similar Emax (261±38 vs 299±27 μA/cm^2; n=5; p>0.05) and EC50 (20.6±3 vs 22.7±9 μM) values.

[4] = tested on: full-thickness colonic segments; experiment: Open organ bath intraluminal pressure of mouse colonic segments ex vivo
Experimental: Preparations of full-thickness colonic segments (˜1.5 cm) were allowed to equilibrate in 37° C. Kreb's-jacketed organ baths with their distal ends opening to a pressure transducer and maintained under basal pressure of 5-cm column of vehicle (RL). The proximal end was closed during pressure recordings but opened to allow luminal infusion of vehicle or tryptamine in solution (100 μM, 1 mM and 3 mM; 10 minutes per treatment; n=5-7 mice).

[5] = tested on: proximal colon, stripped of external muscle layers; experiment: Ussing chamber short circuit current of proximal colon from GF, HM and CR mice; conditions: HM or CR mice
[6] = tested on: tryptophan hydroxylase 1 (Tph1) mRNA expression in BON cells
Experimental: Cells were plated at 1×10^5 per ml and grown to 90% confluency in 12-well culture plates. Culture wells were then treated (in triplicate) with tryptamine in media for 6 hours, fixed in RNA Protect (Qiagen) and subjected to qRT-PCR.

[7] = tested on: 5HTR4; conditions: for response (Δ Isc) to mucosal application / response (Δ Isc) to serosal application: 5HTR4 KO mice
Experimental: The response to […] (5HT; 0.003-300 μM) on the mucosal or serosal side and tryptamine (0.003-3000 μM) on the mucosal or serosal side was determined in segments of proximal colon, stripped of external muscle layers, from both 5HTR4 KO and WT mice.

[8] = molecular target: T2, RUMGNA_01526 (Mediterraneibacter gnavus, UniProt A7B1V0); format: biochemical, Ruminococcus gnavus
T2 construct: His6 (N); made in house; host or cells: E. coli BL21 (DE3)
Experimental: as §1
To determine the kinetic parameters for the decarboxylation of tryptophan by RUMGNA 01526, RUMGNA_01526 was added to a final concentration of 10 nM, and kcat and Km were determined by varying the concentration of tryptophan from 0.15-10 mM. Reactions proceeded for 7 minutes and were quenched as described. 100 μL of the quenched reaction was analyzed by HPLC. Peak areas were integrated and compared with a standard curve to calculate product concentration. Triplicate measurements were made from a single batch of purified enzyme. Initial velocity data were fit to the Michaelis-Menten equation by using the program GraphPad. The allosteric sigmoidal model was used by fitting to the Hill equation: y=vmax*x^h/(K0.5^h+x^h), where h is the Hill coefficient and K0.5 is the apparent concentration at half maximal velocity.
as §2
Basic kinetic parameters were measured for the decarboxylation of Trp, Tyr, and Phe by RUMGNA_01526.

[9] = molecular target: T2, RUMGNA_01526; experiment: Inhibition of RUMGNA_01526 tryptamine production by (S)-α-FMT, progress curves; format: biochemical, Ruminococcus gnavus; conditions: RUMGNA_01526, 2.5 mM Trp
From the text: (§3) Progress curves were fitted to the equation [P]=(vi/kobs)(1−exp(−kObst)), where P is the product formed at time t, vi is the initial velocity, and kobs is the apparent first-order rate constant for enzyme inactivation. The kobs were plotted versus inhibitor concentration and fitted to the equation kobs=kinact[I]/(Kapp+[I]), where Kapp is the apparent dissociation constant of the reversible enzyme-inhibitor complex, and kinact is the first-order rate constant for apparent irreversible conversion of the enzyme-inhibitor complex to covalently bound complex. Ki values were calculated using the equation Ki=Kapp/(1+[tryptophan])/Km,Trp) using experimentally determined Km values for tryptophan (Schirmer et al., Proc. Natl. Acad. Sci. USA, 103(11):4234-4239 (2006)).
(§4) The production of tryptamine was measured by HPLC in the presence of various concentrations of inhibitor over 30 minutes and progress curves of the reaction were analyzed to assess the kinetics of inhibition.

[10] = molecular target: T1, CLOSPO_02083; experiment: Inhibition of CLOSPO_02083 tryptamine production by (S)-α-FMT, progress curves; format: biochemical; conditions: CLOSPO_02083, 10 mM Trp
From the text: as §3, §4

[11] = any of the tryptamine concentrations
[12] = 1 μM enzyme, 2.28 mM tyrosine, 90 minutes
[13] = at the highest concentration of Tyr tested

SMILES: N[C@@H](Cc1ccccc1)C(=O)O [Phe, phenylalanine]
- decarboxylation of Phe by CLOSPO_02083 ([1]; 1 μM enzyme): undetectable
- decarboxylation of Phe by CLOSPO_02083 ([1]; 1 μM enzyme, listed as phenylalanine): not observed

SMILES: NCCc1c[nH]c2ccccc12 [tryptamine]
- change in short circuit current (ion secretion) [2]: significant change in short circuit current; also recorded: significant increase
- cumulative concentration response curves (intestinal secretion) [3]: significantly higher in GF compared to HM and CR
- contractile duration, measured at half amplitude, vs vehicle ([4]; any of the luminal tryptamine treatments): not significantly different
- contractile magnitude, area under the curve, vs vehicle [4, 11]: not significantly different
- mean contractile amplitude vs vehicle [4, 11]: not significantly different
- contractile frequency vs vehicle controls ([4]; luminal 100 μM, 1 mM and 3 mM): not significantly different
- contractile frequency ([4]; luminal 1 mM tryptamine, vehicle control 4.1±0.6, P=0.15): 5.9±0.8
- biological effect in the presence of 5HT3 receptor antagonist [5]: did not block
- biological effect in the presence of 5HT4 receptor antagonist [5]: blocked the biological effect
- maximal response (Emax) in the presence of 5HT3 receptor antagonist [5]: is not blocked
- maximal response (Emax) in the presence of 5HT4 receptor antagonist [5]: can be blocked
- alteration of Tph1 mRNA levels ([6]; 1 μM, 5 μM, 10 μM and 20 μM, 6 hours): None of the tested tryptamine concentrations (1 μM, 5 μM, 10 μM, and 20 μM) reproducibly showed a significant alteration
- response (Δ Isc) to mucosal application [7]: no response
- response (Δ Isc) to serosal application [7]: no response
- Δ Isc response ([7]; mucosal application of 3000 μM, 5HTR4 WT mice, maximum response not reached): 99.5±30.7
- Emax (Δ Isc) ([7]; serosal application, 5HTR4 WT mice): 110±17 μA/cm2

SMILES: CCCC(=O)O [Butyrate, butyrate]
- Tph1 mRNA induction above controls ([6]; butyrate 500 μM): 3.5 fold
- Tph1 mRNA induction above controls ([6]; butyrate 1 mM): 2.5 fold

SMILES: CC(=O)O [acetate]
- Tph1 expression induction ([6]; acetate 10 mM): 2.5 fold
- Tph1 expression induction ([6]; acetate 30 mM): 3.2 fold
- Tph1 expression induction ([6]; acetate 50 mM): 2.2 fold

SMILES: N[C@@H](Cc1ccc(O)cc1)C(=O)O [tyrosine]
- decarboxylation of tyrosine by RUMGNA_01526 [8, 12]: observed
- decarboxylation of tyrosine by CLOSPO_02083 [1, 12]: observed

SMILES: N[C@@](CF)(Cc1c[nH]c2ccccc12)C(=O)O [(S)-α-FMT, (S)-α-fluoromethyltryptophan]
- Ki [9]: 178 µM
- kinact [9]: 0.02 s⁻¹
- Ki [10]: 0.2 µM
- kinact [10]: 0.00167 s⁻¹

SMILES: NCCc1c[nH]c2ccc(O)cc12 [serotonin, 5-hydroxy tryptamine, reference compound]
- cumulative concentration response curves (intestinal secretion) [3]: significantly higher in GF compared to HM and CR
- biological effect in the presence of 5HT3 receptor antagonist [5]: blocked the biological effect
- biological effect in the presence of 5HT4 receptor antagonist [5]: blocked the biological effect
- maximal response (Emax) in the presence of 5HT3 receptor antagonist [5]: can be blocked
- maximal response (Emax) in the presence of 5HT4 receptor antagonist [5]: can be blocked
- response (Δ Isc) to mucosal application [7]: no response
- response (Δ Isc) to serosal application [7]: decreased responsiveness

SMILES: N[C@@H](Cc1c[nH]c2ccccc12)C(=O)O [Trp, tryptophan]
- Km for Trp relative to Phe (lower) ([8]; RUMGNA_01526): 70 fold
- catalytic efficiency for Trp relative to Phe ([8]; RUMGNA_01526): > 1000 fold
- kcat for Trp relative to Phe (higher) ([8]; RUMGNA_01526): 19 fold
- efficiency of decarboxylating Trp relative to Tyr [8, 13]: 1000 fold
- kcat ([8]; decarboxylation of Trp by RUMGNA_01526): 73.33 s⁻¹
- Km ([8]; decarboxylation of Trp by RUMGNA_01526, 10 nM enzyme, 37° C.): 1100 ± 100 µM
- efficiency of decarboxylating Trp relative to Tyr [1, 13]: 600 fold
- kcat ([1]; decarboxylation of Trp by CLOSPO_02083): 20 s⁻¹
- Km ([1]; decarboxylation of Trp by CLOSPO_02083, 100 nM enzyme, 37° C.): 2800 µM

SMILES: CC(=O)OCC[N+](C)(C)C [ACh, Acetylcholine]
- EC50 ([3]; GF mice): 20.6 ± 3 µM
- EC50 ([3]; HM mice): 22.7 ± 9 µM
- Emax (Δ Isc) ([3]; GF mice): 261±38 μA/cm^2
- Emax (Δ Isc) ([3]; HM mice): 299±27 μA/cm^2
